Here are results for 40 compounds from US12673947B2 (Cytosinlab Therapeutics Co., Ltd., priority 2020, dated 2026).

pIC50: −log10 of the molar value.

In test [1] the target is T1, FLT3 (Homo sapiens, UniProt P36888).
T1 construct: purchased Carna 08-145
T1 sequence (P36888 27-993): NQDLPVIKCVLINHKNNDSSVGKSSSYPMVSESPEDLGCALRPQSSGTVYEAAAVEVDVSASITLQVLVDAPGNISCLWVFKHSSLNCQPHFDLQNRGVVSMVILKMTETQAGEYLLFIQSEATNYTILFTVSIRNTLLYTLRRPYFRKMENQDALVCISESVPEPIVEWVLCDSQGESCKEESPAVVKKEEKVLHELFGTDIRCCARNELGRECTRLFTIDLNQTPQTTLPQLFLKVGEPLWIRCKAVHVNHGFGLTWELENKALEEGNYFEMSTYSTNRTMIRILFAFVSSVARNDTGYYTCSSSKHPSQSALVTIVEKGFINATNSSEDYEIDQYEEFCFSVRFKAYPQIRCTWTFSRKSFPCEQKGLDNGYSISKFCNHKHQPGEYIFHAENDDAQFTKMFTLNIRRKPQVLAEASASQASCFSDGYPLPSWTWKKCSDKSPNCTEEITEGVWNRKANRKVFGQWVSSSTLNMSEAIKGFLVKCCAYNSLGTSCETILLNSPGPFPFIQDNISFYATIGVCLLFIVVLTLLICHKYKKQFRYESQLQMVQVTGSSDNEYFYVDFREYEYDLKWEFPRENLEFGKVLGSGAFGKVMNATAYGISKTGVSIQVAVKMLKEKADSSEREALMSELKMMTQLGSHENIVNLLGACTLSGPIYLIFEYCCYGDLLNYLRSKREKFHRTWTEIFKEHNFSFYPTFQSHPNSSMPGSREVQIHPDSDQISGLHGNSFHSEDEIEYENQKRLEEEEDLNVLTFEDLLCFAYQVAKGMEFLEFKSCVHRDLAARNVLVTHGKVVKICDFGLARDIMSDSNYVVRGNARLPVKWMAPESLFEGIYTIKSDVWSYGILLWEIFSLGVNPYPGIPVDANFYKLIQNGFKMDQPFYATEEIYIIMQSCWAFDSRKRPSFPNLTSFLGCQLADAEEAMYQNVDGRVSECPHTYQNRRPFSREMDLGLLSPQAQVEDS
Nature of the test: FLT3 kinase in vitro inhibitory activity experiment (Caliper mobility shift, conversion rate). In kind it is biochemical. The settings on record: IC50 class, read-out: Enzyme activity FLT3. The method in brief: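 FLT3 was pre-incubated with compound for 10 min at room temperature, then the reaction was started with ATP plus Kinase substrate 2 and run 30 min at room temperature before stop solution. Substrate conversion was read by Caliper mobility shift.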

The test system of test [2] is MV4;11 cells. Nature of the test: MV4;11 in vitro inhibition of proliferation assay (CellTiter-Glo, 72 hours). The test is classed as cell-based. The note with it: Homo sapiens, MV4-11, 72 h, IC50 class, read-out: Inhibitory activity of cell proliferation MV4;11. The method in brief: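 MV4;11 cells in IMDM/10% FBS, 2000 per well, were exposed to 9-point 3-fold DMSO dilutions from 10 uM (final DMSO 0.3%) in triplicate for 72 hours at 37° C., 5% CO2. Viability was read by CellTiter-Glo luminescence, and IC50 came from a four-parameter fit of inhibition.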

For the compound `CCc1nc2c(N)ncc(-c3cnn(C4CCN(C5CC5)CC4)c3)c2nc1N[C@@H]1CC[C@H](O)C1` [Compound 211], the pIC50 in test [1] and in test [2] was ≥ 8.00 throughout.

Consider `CCc1nc2c(N)ncc(-c3cnn(C4CCN(C5CCC5)CC4)c3)c2nc1N[C@@H]1CC[C@H](O)C1` [Compound 212], for which the pIC50 in test [1] and in test [2] was ≥ 8.00 each time.

Turning to `CCc1nc2c(N)ncc(-c3cnn(C4CCN(C5CCCC5)CC4)c3)c2nc1N[C@@H]1CC[C@H](O)C1` [Compound 213], the pIC50 in test [1] and in test [2] was ≥ 8.00 throughout.

As to `CCc1nc2c(N)ncc(-c3cnn(C4CCN(C5CCCCC5)CC4)c3)c2nc1N[C@@H]1CC[C@H](O)C1` [Compound 214], the pIC50 in test [1] and in test [2] was ≥ 8.00 throughout.

Consider `CCc1nc2c(N)ncc(-c3cnn(C4CCN(C)CC4)c3)c2nc1N[C@@H]1CC[C@H](O)C1` [Compound 215], for which the pIC50 in test [1] and in test [2] was ≥ 8.00 throughout.

On to `CCc1nc2c(N)ncc(-c3cnn(C4CCN(CC)CC4)c3)c2nc1N[C@@H]1CC[C@H](O)C1` [Compound 216], for which the pIC50 in test [1] and in test [2] was ≥ 8.00 each time.

Turning to `CCc1nc2c(N)ncc(-c3cnn(C4CCN(C(C)C)CC4)c3)c2nc1N[C@@H]1CC[C@H](O)C1` [Compound 217], the pIC50 in test [1] and in test [2] was ≥ 8.00 in each case.

`CCc1nc2c(N)ncc(-c3cnn(C4CCN(CC(F)F)CC4)c3)c2nc1N[C@@H]1CC[C@H](O)C1` [Compound 218]: the pIC50 in test [1] and in test [2] was ≥ 8.00 each time.

Regarding `CCc1nc2c(N)ncc(-c3cnn(C4CCN(CC(F)(F)F)CC4)c3)c2nc1N[C@@H]1CC[C@H](O)C1` [Compound 219], the pIC50 in test [1] and in test [2] was ≥ 8.00 in each case.

As to `[2H]C([2H])([2H])N1CCC(n2cc(-c3cnc(N)c4nc(CC)c(N[C@@H]5CC[C@H](O)C5)nc34)cn2)CC1` [Compound 220], the pIC50 in test [1] and in test [2] was ≥ 8.00 in each case.

With `[2H]C([2H])([2H])C(N1CCC(n2cc(-c3cnc(N)c4nc(CC)c(N[C@@H]5CC[C@H](O)C5)nc34)cn2)CC1)C([2H])([2H])[2H]` [Compound 221], the pIC50 in test [1] and in test [2] was ≥ 8.00 in each case.

`[2H]C([2H])([2H])C([2H])(N1CCC(n2cc(-c3cnc(N)c4nc(CC)c(N[C@@H]5CC[C@H](O)C5)nc34)cn2)CC1)C([2H])([2H])[2H]` [Compound 222]: the pIC50 in test [1] and in test [2] was ≥ 8.00 throughout.

As to `CCc1nc2c(N)ncc(-c3cnn(C4CCN(C)CC4)c3)c2nc1N[C@H]1CCOC1` [Compound 223], the pIC50 in test [1] and in test [2] was ≥ 8.00 each time.

Turning to `CCc1nc2c(N)ncc(-c3cnn(C4CCN(CC)CC4)c3)c2nc1N[C@H]1CCOC1` [Compound 224], the pIC50 in test [1] and in test [2] was ≥ 8.00 throughout.

With `CCc1nc2c(N)ncc(-c3cnn(C4CCN(C(C)C)CC4)c3)c2nc1N[C@H]1CCOC1` [Compound 225], the pIC50 in test [1] and in test [2] was ≥ 8.00 each time.

As to `CCc1nc2c(N)ncc(-c3cnn(C4CCN(C(CC)CC)CC4)c3)c2nc1N[C@H]1CCOC1` [Compound 226], the pIC50 in test [1] and in test [2] was ≥ 8.00 throughout.

For `CCc1nc2c(N)ncc(-c3cnn(C4CCN(C(C)CC)CC4)c3)c2nc1N[C@H]1CCOC1` (some centres unmarked) [Compound 227], the pIC50 in test [1] and in test [2] was ≥ 8.00 in each case.

Regarding `CCc1nc2c(N)ncc(-c3cnn(C4CCN(C5CC5)CC4)c3)c2nc1N[C@H]1CCOC1` [Compound 228], the pIC50 in test [1] was ≥ 8.00; in test [2], 7.00 to 8.00.

On to `CCc1nc2c(N)ncc(-c3cnn(C4CCN(C(CC)CC)CC4)c3)c2nc1NC1CCOCC1` [Compound 232, 3-Ethyl-8-(1-(1-(pent-3-yl)piperidin-4-yl)-1H-pyrazol-4-yl)-N2-(tetrahydro-2H-pyran-4-yl)pyridino [3,4-b]pyrazine-2,5-diamine], for which the pIC50 in test [1] and in test [2] was ≥ 8.00 throughout.

As to `CCc1nc2c(N)ncc(-c3cnn(C4CCN(CC(C)(C)O)CC4)c3)c2nc1NC1CCOCC1` [Compound 233], the pIC50 in test [1] and in test [2] was ≥ 8.00 in each case.

For the compound `CCc1nc2c(N)ncc(-c3cnn(C4CCN(C(C)C)CC4)c3)c2nc1NC1CCOCC1` [Compound 234], the pIC50 in test [1] and in test [2] was ≥ 8.00 each time.

Regarding `CCc1nc2c(N)ncc(-c3cnn(C4CCN(C5CCN(CC)CC5)CC4)c3)c2nc1NC1CCOCC1` [Compound 235], the pIC50 in test [1] and in test [2] was ≥ 8.00 in each case.

As to `CCc1nc2c(N)ncc(-c3cnn(C4CCN(C5CCN(C(C)C)CC5)CC4)c3)c2nc1NC1CCOCC1` [Compound 236], the results for the pIC50 in test [1] and in test [2] were ≥ 8.00 and 7.00 to 8.00, respectively.

Regarding `CCc1nc2c(N)ncc(-c3cnn(C4CCN(C5CCOCC5)CC4)c3)c2nc1NC1CCOCC1` [Compound 237], the pIC50 is ≥ 8.00 in test [1] and 7.00 to 8.00 in test [2].

As to `CCc1nc2c(N)ncc(-c3cnn(C4CCN(C5COC5)CC4)c3)c2nc1NC1CCOCC1` [Compound 238], the pIC50 in test [1] was ≥ 8.00; in test [2], 7.00 to 8.00.

Regarding `CCc1nc2c(N)ncc(-c3cnn(C4CCN(C5CCN(CCO)CC5)CC4)c3)c2nc1NC1CCOCC1` [Compound 239], the pIC50 was ≥ 8.00 in test [1] and 7.00 to 8.00 in test [2].

For `CCc1nc2c(N)ncc(-c3cnn(C4CCN(C5CCN(CCOC)CC5)CC4)c3)c2nc1NC1CCOCC1` [Compound 240], the pIC50 is ≥ 8.00 in test [1] and 7.00 to 8.00 in test [2].

Take `CCc1nc2c(N)ncc(-c3cnn(C4CCN(C5CCN(CC(C)C)CC5)CC4)c3)c2nc1NC1CCOCC1` [Compound 241]: the pIC50 was ≥ 8.00 in test [1] and 7.00 to 8.00 in test [2].

As to `CCc1nc2c(N)ncc(-c3cnn(C4CCN(C5CN(C)C5)CC4)c3)c2nc1NC1CCOCC1` [Compound 242], the pIC50 is ≥ 8.00 in test [1] and 7.00 to 8.00 in test [2].

With `CCc1nc2c(N)ncc(-c3cnn(C4CCN(C5CCN(C6CC6)CC5)CC4)c3)c2nc1NC1CCOCC1` [Compound 243], the pIC50 in test [1] and in test [2] was ≥ 8.00 throughout.

For `CCc1nc2c(N)ncc(-c3cnn(C4CCN(C5CCN(CC)CC5)CC4)c3)c2nc1N[C@H]1CCOC1` [Compound 244], the pIC50 in test [1] was ≥ 8.00; in test [2], 7.00 to 8.00.

`CCc1nc2c(N)ncc(-c3cnn(C4CCN(C5CCN(CC)CC5)CC4)c3)c2nc1N[C@@H]1CC[C@H](O)C1` [Compound 245]: the pIC50 in test [1] and in test [2] was ≥ 8.00 each time.

`CCc1nc2c(N)ncc(-c3cnn(C4CCN(C5CCN(CC)CC5)CC4)c3)c2nc1NC1CCCC(O)C1` (centres unmarked) [Compound 246, 3-((5-amino-3-ethyl-8-(1-(1′-ethyl-[1,4′-bipiperidine]-4-yl)-1H-pyrazol-4-yl)pyridino[3,4-b]pyrazine-2-yl)amino)cyclohexan-1-ol]: the pIC50 in test [1] and in test [2] was ≥ 8.00 throughout.

On to `CCc1nc2c(N)ncc(-c3cnn(C4CCN(C5CCN(C)CC5)CC4)c3)c2nc1NC1CCOC1` (centres unmarked) [Compound 247], for which the pIC50 in test [1] is ≥ 8.00; in test [2] it was 7.00 to 8.00.

With `CCc1nc2c(N)ncc(-c3cnn(C4CCN(C5CCN(C)CC5)CC4)c3)c2nc1N[C@H]1CCOC1` [Compound 248], the pIC50 in test [1] is ≥ 8.00; in test [2], 7.00 to 8.00.

As for `CCc1nc2c(N)ncc(-c3cnn(C4CCN(C5CCN(C)CC5)CC4)c3)c2nc1N[C@@H]1CC[C@H](O)C1` [Compound 249], the pIC50 in test [1] and in test [2] was ≥ 8.00 each time.

In the case of `CCc1nc2c(N)ncc(-c3ccc(N4CCC(N5CCN(C)CC5)CC4)c(OC)c3)c2nc1N[C@@H]1CCOC1` [Compound 251], the figures for the pIC50 in test [1] and in test [2] were ≥ 8.00 and 7.00 to 8.00, respectively.

In the case of `CCc1nc2c(N)ncc(-c3ccc(N4CCC(N5CCN(C)CC5)CC4)c(OC)c3)c2nc1N[C@H]1CCOC1` [Compound 252], the results for the pIC50 in test [1] and in test [2] were ≥ 8.00 and 7.00 to 8.00, respectively.

With `CCc1nc2c(N)ncc(-c3ccc(N4CCC(N5CCN(CC)CC5)CC4)c(OC)c3)c2nc1N[C@@H]1CC[C@H](O)C1` [Compound 253], the pIC50 in test [1] and in test [2] was ≥ 8.00 each time.

As for `CCc1nc2c(N)ncc(-c3ccc(N4CCC(N5CCN(C)CC5)CC4)c(OC)c3)c2nc1N[C@@H]1CCC[C@H](O)C1` [Compound 257], the pIC50 in test [1] and in test [2] was ≥ 8.00 each time.
